In article PMC11939078, “TAK-994 mechanistic investigation into drug-induced liver injury” (Toxicological Sciences, 2025):
pIC50: −log10 of the molar value. Where two headings read alike, the source gives them in different places.

How the values were obtained:
participants = assay: Phase I first-in-human study TAK-994-1001, safety; format: in vivo
Text: TAK-994 was considered to be well tolerated in phase I studies. […] Of 121 participants, 1 subject discontinued due to elevated alanine aminotransferase (ALT) with no other liver enzyme elevations. This event was considered mild in intensity and the participant recovered within 2 wk. No other clinically significant liver enzyme elevations were reported in phase I studies.

patients with narcolepsy [1] = settings: in vivo
human hepatocytes = assay: Covalent binding of [14C]TAK-994 in human hepatocytes and CVB burden; format: in vitro ADME; settings: for Daily CVB burden: most conservative values based on internal assay data (Table 1); for CVB burden: fa and fm assumed 1 (Table 3)
Description: (§1) Covalent binding of TAK-994 was assessed by incubating [^14C]TAK-994 with human hepatocytes. The CVB level was determined by relating the total amount of radioactivity (pmol equivalent) to the protein concentration in each sample. Assessment of TAK-994 inhibition potential for the bile salt efflux pump (BSEP) was assessed by incubating [^3H(G)]taurocholic acid with TAK-994 (0 to 100 μM/l) or cyclosporin A after addition of 10 μl of membrane vesicles expressing BSEP or control membrane vesicles. Scintillation counts were assessed in two 5-min cycles.
[^14C ]TAK-994 (10 μmol/L, supplied by Takeda Pharmaceutical Company Limited, Japan) was incubated with human hepatocytes (LIVERPOOL® 10-donor mixed gender, pooled, cryopreserved human hepatocytes [Lot No. ZOL, BioIVT]) as suspension culture in 24-well plates at 37°C under 5% CO2, humidified, for 0 or 2 hours. Seeding density of the cells was 3.0 × 10^5 viable cells/500 μL/well. A total of 3 replicates were assessed.
The covalent-binding (CVB) level was determined by relating the total amount of radioactivity (pmol equivalent) to the protein concentration in each sample. To obtain the net covalent-binding (CVBnet), the average result of the “back-added” samples (CVBback) was subtracted from the average result of the incubated samples (CVBinc). For the determination of [^14C ]TAK-994 turnover in the incubation, part of the samples were analyzed by high-performance liquid chromatography with an online flow scintillation analyzer.
Turnover = 1 − [percentage of TAK-994 relative to the total radioactivity at 2 hours] [percentage of TAK-994 relative to the total radioactivity at 0 hour]
fcvb = CVB (pmol/mg protein) × [mean protein concentration (mg/well)] turnover × [substrate concentration (pmol/well)]
CVB burden (mg) = D × fa × fm × fcvb
D was set to 60, 180, 240, and 360 mg. Both fa and fm were set to a value of 1 (Thompson et al. 2012).

patients with narcolepsy [2] = system: patients with narcolepsy; design: method as in Dauvilliers et al. 2023; settings: 30, 90 or 180 mg twice daily, 8 wk; ref Dauvilliers et al. 2023; cited from earlier work
human BSEP = human BSEP (Homo sapiens, UniProt O95342); assay: BSEP inhibition, [3H]TCA uptake into membrane vesicles; format: biochemical; settings: [3H]TCA transport
Description: as §1
Membrane vesicles prepared from baculovirus-infected insect cells, expressing human BSEP or controls (Lot Nos. ISAOG29 and IKING23, respectively), were purchased from GenoMembrane Co., Ltd.
The [^3H]TCA reaction mixture (n=42) containing TAK-994 (including 0–100 μM/L TAK-994) or cyclosporin A was pre-incubated at 37°C for 5 minutes. The transport reaction was initiated by addition of 10 μL of membrane vesicles expressing BSEP or control membrane vesicles (0.05 mg protein) to the [^3H]TCA reaction mixture (final [^3H]TCA concentration of 2 μM/L). […] The glass fiber filter was measured for radioactivity using an LSC. […]
The count rates in cpm were corrected to dpm, with the background and counting efficiency assessed using the external standard method described by the manufacturer. […]

human liver microtissues = assay: Glutathione depletion (BSO) assay in liver microtissues; format: cell-based; settings: for pIC50: cellular ATP, 14 days
Description: Toxicology of TAK-994 was assessed using lnSphero’s 3D lnSight Human Liver models, based on N-acetyl-L-cysteine causality assay, glutathione depletion assay, and lipopolysaccharide (LPS)-sensitization assay. Hepatotoxicity was assessed in 7- and 14-day mono and co-culture models, in which cells were exposed to TAK-994 (0.1, 0.3, 1, 3.16, 10, 31.6, or 100 μM) […].
Co-culture model cells were pretreated with BSO (150 μM in DMSO) and then exposed to TAK-994 (0.1, 0.3, 1, 3.16, 10, 31.6, or 100 μM in 0.5% DMSO) in the presence and absence of BSO for 14 days (during the treatment period, TAK-994 with or without BSO was administered on Days 0, 5, and 9). Six replicates were tested for each condition. The vehicle control was 0.5% DMSO and the positive control was acetaminophen (0.6, 1.25, 2.5, or 5 mM in Medium TOX). Cellular ATP content was measured in the cell lysate on Day 14 of treatment. LDH release was measured on Days 5, 9, and 14 in the cell supernatant. For cells administered BSO alone, cellular ATP content was also measured on Day 3 and LDH release was also determined between Days 0 to 3. LDH measurements were normalized to lysed controls. Cellular GSH content was measured by GSH-Glo™ Glutathione Assay (Promega) on Days 0, 3, and 14 in the positive control group.
Intracellular ATP content in model lysates was measured with the CellTiter-Glo® 2.0 Cell Viability Assay (Catalogue No. G9243, Promega). The Bioluminescent LDH Release Toxicity Assay Kit (Catalogue No. J2380, Promega) was used to assess extracellular LDH release and normalized to lysed controls. ATP, LDH, GSH, and triglycerides were measured according to internal technical operating procedures.

Chain of human BSEP (O95342 whole entry): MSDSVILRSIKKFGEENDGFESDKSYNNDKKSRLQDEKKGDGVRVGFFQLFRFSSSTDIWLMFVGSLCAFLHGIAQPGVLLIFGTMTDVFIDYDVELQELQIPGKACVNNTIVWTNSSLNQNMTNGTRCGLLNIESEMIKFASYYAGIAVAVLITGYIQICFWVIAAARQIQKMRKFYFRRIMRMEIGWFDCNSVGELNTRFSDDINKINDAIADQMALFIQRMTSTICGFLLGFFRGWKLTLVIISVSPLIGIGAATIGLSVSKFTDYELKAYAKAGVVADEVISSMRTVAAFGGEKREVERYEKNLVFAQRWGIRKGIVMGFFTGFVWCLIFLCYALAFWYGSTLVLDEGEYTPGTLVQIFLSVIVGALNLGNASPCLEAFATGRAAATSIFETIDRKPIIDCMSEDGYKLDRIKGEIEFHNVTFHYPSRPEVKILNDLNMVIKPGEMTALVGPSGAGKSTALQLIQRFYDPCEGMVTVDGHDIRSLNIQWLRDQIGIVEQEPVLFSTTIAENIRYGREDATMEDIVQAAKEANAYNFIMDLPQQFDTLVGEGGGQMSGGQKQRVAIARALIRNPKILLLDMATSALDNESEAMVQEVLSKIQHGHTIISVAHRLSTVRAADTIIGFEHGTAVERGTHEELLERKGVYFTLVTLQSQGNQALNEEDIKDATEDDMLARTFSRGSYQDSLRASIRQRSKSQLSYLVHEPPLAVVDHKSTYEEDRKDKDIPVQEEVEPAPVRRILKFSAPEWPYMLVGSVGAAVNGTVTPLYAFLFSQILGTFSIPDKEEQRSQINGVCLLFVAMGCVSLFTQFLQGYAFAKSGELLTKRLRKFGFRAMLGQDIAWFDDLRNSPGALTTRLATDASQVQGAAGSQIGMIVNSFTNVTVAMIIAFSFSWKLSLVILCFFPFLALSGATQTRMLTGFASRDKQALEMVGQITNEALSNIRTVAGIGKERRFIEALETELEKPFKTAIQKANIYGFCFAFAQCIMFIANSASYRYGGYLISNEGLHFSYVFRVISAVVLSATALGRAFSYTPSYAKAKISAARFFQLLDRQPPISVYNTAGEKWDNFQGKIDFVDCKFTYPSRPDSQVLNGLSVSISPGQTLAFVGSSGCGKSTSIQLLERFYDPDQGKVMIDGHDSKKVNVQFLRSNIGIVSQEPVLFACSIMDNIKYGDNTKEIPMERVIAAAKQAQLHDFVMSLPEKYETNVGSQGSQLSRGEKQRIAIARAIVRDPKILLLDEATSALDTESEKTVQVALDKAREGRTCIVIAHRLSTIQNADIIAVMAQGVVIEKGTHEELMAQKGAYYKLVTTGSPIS

CC(C)(O)C(=O)N1CC[C@H](NS(C)(=O)=O)[C@@H]1Cc1cccc(-c2cc(F)cc(F)c2)c1F.CC(C)(O)C(=O)N1CC[C@H](NS(C)(=O)=O)[C@@H]1Cc1cccc(-c2cc(F)cc(F)c2)c1F.O.O.O [TAK-994]
deaths or SAEs (participants; TAK-994-1001): no deaths or SAEs were reported | subjects discontinued due to elevated ALT (participants; of 121 participants): 1 | onset of earliest Hy's Law case (patients with narcolepsy [1]): 50 days | Daily CVB burden (human hepatocytes; 90 mg BID): 25.1 mg | Daily CVB burden (human hepatocytes; 180 mg BID): 50.2 mg | CVB level (human hepatocytes; 2-h incubation of human hepatocytes with TAK-994 at 10 μM): 389.2 pmol equivalent/mg protein | CVB burden (human hepatocytes; daily dose 60 mg (30 BID)): 2.94 mg | CVB burden (human hepatocytes; daily dose 180 mg (90 BID)): 8.82 mg | CVB burden (human hepatocytes; daily dose 240 mg (120 BID)): 11.8 mg | CVB burden (human hepatocytes; daily dose 360 mg (180 BID)): 17.6 mg | f CVB (fraction of metabolism leading to covalent binding) (human hepatocytes; human hepatocytes, 10 μM, 2 h): 0.0490 | mean wakefulness time in people with narcolepsy (patients with narcolepsy [2]): effectively increased mean wakefulness time | pIC50 (human BSEP): 4.47 | sensitization of liver microtissues by buthionine sulfoximine depletion (human liver microtissues): no such sensitivity was observed | pIC50 (human liver microtissues; glutathione depleted, read-out: IC50, liver microtissues + BSO (Fig. 4A)): < 4.00 | pIC50 (human liver microtissues; read-out: IC50, liver microtissues without BSO (Fig. 4A)): < 4.00
